25 compounds from PubChem BioAssay AID330 (DTP/NCI, 2004) can be followed below.

The subject of the assay is P388 leukemia ip, CD2F1 mice, survival T/C. As to the kind of experiment: NCI In Vivo Anticancer Drug Screen. Data for tumor model P388 Leukemia (intraperitoneal) in CD2F1 (CDF1) mice. To be noted: endpoint: median survival time, higher = longer survival. The essentials: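 Mice carrying the transplanted tumor received test compound or vehicle. Survival was recorded in each group, and the value is the treated-group measurement divided by that of the vehicle-treated control group.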

Setting [1] is: dose: 100.0 mg/kg/injection, schedule: Q04DX003 (ip), vehicle: saline with Tween-80.
Setting [2] is: dose: 200.0 mg/kg/injection, schedule: Q04DX003 (ip), vehicle: saline with Tween-80.
Setting [3] is: dose: 400.0 mg/kg/injection, schedule: Q04DX003 (ip), vehicle: saline with Tween-80.
The mark [4] stands for this setting: dose: 50.0 mg/kg/injection, schedule: Q01DX005 (ip), vehicle: saline with Tween-80.
Setting [5] is: dose: 100.0 mg/kg/injection, schedule: Q01DX005 (ip), vehicle: saline with Tween-80.
Setting [6] is: dose: 100.0 mg/kg/injection, schedule: Q01DX009 (ip), vehicle: saline with Tween-80.
The mark [7] stands for this setting: dose: 200.0 mg/kg/injection, schedule: Q01DX009 (ip), vehicle: saline with Tween-80.
[8] abbreviates: dose: 50.0 mg/kg/injection, schedule: Q01DX009 (ip), vehicle: saline with Tween-80.
Setting [9] is: dose: 50.0 mg/kg/injection, schedule: Q01DX009 (ip), vehicle: Klucel (hydroxypropylcellulose) (HPC).
[10] abbreviates: dose: 100.0 mg/kg/injection, schedule: Q01DX009 (ip), vehicle: Klucel (hydroxypropylcellulose) (HPC).
Where [11] appears, read: dose: 200.0 mg/kg/injection, schedule: Q01DX009 (ip), vehicle: Klucel (hydroxypropylcellulose) (HPC).
The mark [12] stands for this setting: dose: 12.5 mg/kg/injection, schedule: Q01DX005 (ip), vehicle: Klucel (hydroxypropylcellulose) (HPC).
Where [13] appears, read: dose: 50.0 mg/kg/injection, schedule: Q01DX005 (ip), vehicle: Klucel (hydroxypropylcellulose) (HPC).
Where [14] appears, read: dose: 12.5 mg/kg/injection, schedule: Q01DX009 (ip), vehicle: saline.
[15] abbreviates: dose: 25.0 mg/kg/injection, schedule: Q01DX009 (ip), vehicle: saline.
The mark [16] stands for this setting: dose: 50.0 mg/kg/injection, schedule: Q01DX009 (ip), vehicle: saline.
The mark [17] stands for this setting: dose: 100.0 mg/kg/injection, schedule: Q01DX001 (ip), vehicle: saline with Tween-80.
[18] abbreviates: dose: 200.0 mg/kg/injection, schedule: Q01DX001 (ip), vehicle: saline with Tween-80.
Setting [19] is: dose: 400.0 mg/kg/injection, schedule: Q01DX001 (ip), vehicle: saline with Tween-80.
The mark [20] stands for this setting: dose: 25.0 mg/kg/injection, schedule: Q01DX005 (ip), vehicle: saline.
[21] abbreviates: dose: 50.0 mg/kg/injection, schedule: Q01DX005 (ip), vehicle: saline.
[22] abbreviates: dose: 100.0 mg/kg/injection, schedule: Q01DX005 (ip), vehicle: saline.
Where [23] appears, read: dose: 200.0 mg/kg/injection, schedule: Q01DX005 (ip), vehicle: saline.

SMILES strings stand for the structures. Values joined by “and” are separate entries in the source; they are usually repeats but may differ in a detail not shown here. Equal entries are not always repeated. Inconclusive results and toxic doses are left out.

In the case of `Nc1nnc(N)n1-n1c(N)nnc1N`, the T/C was 104 % of control (dose: 15.0 mg/kg/injection, schedule: Q01DX005 (ip), vehicle: saline); 99 % of control (dose: 30.0 mg/kg/injection, schedule: Q01DX005 (ip), vehicle: saline); 100 % of control and 104 % of control (dose: 60.0 mg/kg/injection, schedule: Q01DX005 (ip), vehicle: saline).
Consider `CC[As](=O)(O)CC(C)C`, for which the T/C is 100 % of control (dose: 25.0 mg/kg/injection, schedule: Q04DX002 (ip), vehicle: saline) and 100 % of control (dose: 50.0 mg/kg/injection, schedule: Q04DX002 (ip), vehicle: saline).
`NC(N)=Nc1ccc(C(=O)Oc2ccc([N+](=O)[O-])cc2)cc1`: the T/C was 104 % of control under setting [1], 100 % of control under setting [2] and 95 % of control under setting [3].
`O=C(NN(C(=O)c1ccccc1)c1ccccc1)c1ccccc1`: the T/C was 95 % of control under setting [4] and 92 % of control under setting [5].
In the case of `NC(=S)N/N=C/c1nccc2ccccc12`, the T/C is 153 % of control (dose: 9.4 mg/kg/injection, schedule: Q01DX009 (ip), vehicle: saline with Tween-80); 150 % of control (dose: 37.5 mg/kg/injection, schedule: Q01DX009 (ip), vehicle: saline); 150 % of control (dose: 75.0 mg/kg/injection, schedule: Q01DX009 (ip), vehicle: saline); 152 % of control under setting [6]; 98 % of control under setting [7].
Consider `ClC(Cl)(Cl)C1OCCO1`, for which the T/C reads like this: under setting [8], 95 % of control; under setting [6], 104 % of control; under setting [1], 100 % of control; under setting [7], 90 % of control; under setting [2], 90 % of control; under setting [3], 95 % of control.
`CC1=NNC(=O)/C1=C/c1ccccc1Cl`: the T/C runs as follows: under setting [9], 104 % of control; under setting [10], 105 % of control; under setting [11], 112 % of control; (dose: 400.0 mg/kg/injection, schedule: Q01DX009 (ip), vehicle: Klucel (hydroxypropylcellulose) (HPC)) 113 % of control.
As for `[CH3][Sn]([CH3])([n]1ccnc1)[n]1ccnc1`, the T/C by setting is: (dose: 6.25 mg/kg/injection, schedule: Q01DX005 (ip), vehicle: Klucel (hydroxypropylcellulose) (HPC)) 120 % of control; under setting [12], 119 % of control; under setting [13], 120 % of control.
For the compound `O=C(CCl)NCc1ccc([N+](=O)[O-])cc1`, the T/C reads like this: (dose: 25.0 mg/kg/injection, schedule: Q01DX009 (ip), vehicle: saline with Tween-80) 108 % of control; under setting [8], 112 % of control; under setting [6], 108 % of control; under setting [7], 103 % of control.
`CCCCCCC[CH2][Sn](=[O])[CH2]CCCCCCC`: the T/C is, setting by setting: under setting [14], 100 % of control; under setting [15], 116 % of control; under setting [8], 101 % of control; under setting [16], 100 % of control.
Consider `NC(=O)N1CCC2c3ccccc3NC(=S)N21` (stereo not drawn), for which the T/C was 102 % of control under setting [17], 99 % of control under setting [18] and 99 % of control under setting [19].
In the case of `N=c1ccn(O)cc1`, the T/C runs as follows: (dose: 6.25 mg/kg/injection, schedule: Q01DX005 (ip), vehicle: saline) 101 % of control; (dose: 12.5 mg/kg/injection, schedule: Q01DX005 (ip), vehicle: saline) 107 % of control; under setting [14], 111 % of control; under setting [20], 102 % of control; under setting [15], 111 % of control.
For `Cc1ccc(SCC#CC#CCS(=O)c2ccc(C)cc2)cc1` (stereo not drawn), the T/C reads like this: under setting [4], 110 % of control; under setting [5], 107 % of control.
For the compound `C=CC/C(=N\OS(=O)(=O)O)SC1OC(CO)C(O)C(O)C1O` (stereo not drawn), the T/C runs as follows: under setting [20], 92 % of control and 98 % of control; under setting [21], 102 % of control [middle of 4 runs]; under setting [22], 101 % of control and 102 % of control and 104 % of control; under setting [23], 100 % of control and 101 % of control and 98 % of control.
On to `O=C(O)c1c[nH]c2cc(OCCc3ccc(F)cc3)ccc2c1=O`, for which the T/C by setting is: under setting [16], 107 % of control; (dose: 100.0 mg/kg/injection, schedule: Q01DX009 (ip), vehicle: saline) 101 % of control; (dose: 200.0 mg/kg/injection, schedule: Q01DX009 (ip), vehicle: saline) 101 % of control.
With `CCCCCCCCCCCCCCCCCc1cccc(OC)c1`, the T/C is, setting by setting: (dose: 7.5 mg/kg/injection, schedule: Q01DX009 (ip), vehicle: saline with Tween-80) 95 % of control; (dose: 15.0 mg/kg/injection, schedule: Q01DX009 (ip), vehicle: saline with Tween-80) 97 % of control; (dose: 30.0 mg/kg/injection, schedule: Q01DX009 (ip), vehicle: saline with Tween-80) 110 % of control.
Turning to `Cc1ccc(S(=O)(=O)NNC(=O)CCC(=O)NS(C)(=O)=O)cc1`, the T/C is 100 % of control under setting [17], 97 % of control under setting [18] and 93 % of control under setting [19].
For the compound `CCCc1c(C(=O)O)c(-c2cccc3ccccc23)c(CCC)c2c1-c1cccc3cccc-2c13`, the T/C runs as follows: under setting [8], 105 % of control; under setting [6], 102 % of control; under setting [7], 100 % of control.
As to `CC(=O)c1ccc(Cl)c(N=Cc2cc(Cl)cc(Cl)c2O)c1`, the T/C runs as follows: under setting [9], 91 % of control; under setting [10], 93 % of control; under setting [11], 98 % of control.
Take `Oc1ccccc1-c1cc(-c2ccccc2)nc(NCCCCNc2nc(-c3ccccc3)cc(-c3ccccc3O)n2)n1`: the T/C is, setting by setting: under setting [12], 97 % of control; (dose: 25.0 mg/kg/injection, schedule: Q01DX005 (ip), vehicle: Klucel (hydroxypropylcellulose) (HPC)) 97 % of control; under setting [13], 94 % of control; (dose: 100.0 mg/kg/injection, schedule: Q01DX005 (ip), vehicle: Klucel (hydroxypropylcellulose) (HPC)) 88 % of control.
In the case of `COc1ccc(-c2cc(-c3ccc(OC)cc3OC)[n+](C)c(-c3ccc(OC)cc3OC)c2)cc1`, the T/C reads like this: (dose: 0.78 mg/kg/injection, schedule: Q01DX009 (ip), vehicle: saline with Tween-80) 124 % of control; (dose: 1.56 mg/kg/injection, schedule: Q01DX009 (ip), vehicle: saline with Tween-80) 124 % of control.
As for `O/N=C\c1ccccc1P(c1ccccc1)c1ccccc1/C=N\O`, the T/C runs as follows: under setting [4], 93 % of control; under setting [5], 92 % of control; (dose: 200.0 mg/kg/injection, schedule: Q01DX005 (ip), vehicle: saline with Tween-80) 90 % of control.
For `NC(N)=NC(N)=NCCS(=O)(=O)O`, the T/C was 110 % of control under setting [21], 110 % of control under setting [22] and 117 % of control under setting [23].
As to `C=C(C)c1nc(N)nc(-c2ccc(OC)cc2)n1`, the T/C reads like this: (dose: 100.0 mg/kg/injection, schedule: Q04DX002 (ip), vehicle: Klucel (hydroxypropylcellulose) (HPC)) 98 % of control; (dose: 200.0 mg/kg/injection, schedule: Q04DX002 (ip), vehicle: Klucel (hydroxypropylcellulose) (HPC)) 94 % of control; (dose: 400.0 mg/kg/injection, schedule: Q04DX002 (ip), vehicle: Klucel (hydroxypropylcellulose) (HPC)) 93 % of control.
On to `Cn1c(N)c(C(=O)/C=C/c2ccccc2)c(=O)n(CCN2CCOCC2)c1=O`, for which the T/C reads like this: under setting [21], 100 % of control; under setting [22], 94 % of control; under setting [23], 89 % of control.
